Legend:
[1] = test system: EGFR phosphorylation on tyrosine residues; assay: Biological activity of purified recombinant ligands: EGFR phosphorylation on tyrosine residues; type: cell-based; conditions: TRX-TGFα 2, 20, 200 ng/ml; TRX-HB-EGF 3, 30, 300 ng/ml; 10 minute incubation
Description: FIGS. 1A-E depict construction, expression and biological activity of recombinant EGF-like ligands and detection of TGFα blocking antibodies using a GPI-anchored TGFα. […] Residue numbers are indicated. […] Molecular weight markers are indicated in kilodaltons. […] Cells were seeded in a 24-well plate, washed and incubated with increasing concentrations of the purified fusion proteins (TRX-TGFα: 2, 20, 200 ng/ml; TRX-HB-EGF: 3, 30, 300 ng/ml). EGF (10 ng/ml) was used as a positive control. After 10 minute incubation, the cells were lysed, and cleared extracts were immunoblotted (IB) with an anti-phosphotyrosine (P-Tyr) antibody. […] Residue numbers refer to TGFα. Cysteine residues of the EGF-like domain are highlighted. […] Cells were seeded in a 24-well plate, washed and incubated with or without TGFα (5 ng/ml), and with increasing volumes of an anti-serum from TGFα-immunized mice (0.2, 2, 4, 6, 8 and 10 μl of serum diluted in 120 μl total; control: 10 μl serum from a naive animal). An anti-phosphotyrosine mAb was used to detect phosphorylated EGFR.
Cells were seeded in a 24-well plate. Twenty-four hours later, cells were washed and incubated with different agents. After ten minutes of incubation, the cells were lysed and cleared extracts were electrophoresed, then immunoblotted with an anti-phosphotyrosine mAb, an anti-EGFR mAb (HeLa) or with an anti-ErbB-3 mAb (T47D).

[2] = test system: BxPC3 pancreatic tumor cells; assay: Cell proliferation assay (MTT), BxPC3; type: cell-based, human; conditions: gemcitabine 50 mg/ml
Description: (§1) FIGS. 4A-B depict effective inhibition of proliferation and tumorigenicity (in vitro and in vivo) of human pancreatic cancer cells by a combination of anti-TGFα and anti-HB-EGF mAbs. […] BxPC3 cells (2×10^4) were seeded in a 96-well plate and allowed to adhere overnight, prior to the addition of anti-TGFα or anti-HB-EGF mAbs (each at 30 μg/ml), or a mixture of both mAbs (each at 15 μg/ml). Cell proliferation was determined in hexaplicates after 96 hours using the MTT method. Averages±S.D. are shown. The experiment was repeated twice. […] Female nude mice (6 week old) were inoculated subcutaneously with 2×10^6 BxPC3 cells. […]
(§2) FIGS. 5A-B depict effective inhibition of human pancreatic cancer cell growth (in vitro and in vivo) by a combination of two mAbs and chemotherapy. […] Of note, body weight monitoring detected no consistent trends and differences other than a slow gain of weight (data not shown).
BxPC3 pancreatic tumor cells were plated on 96-well plates (2,000 cells/well), in hexaplicates. […] Proliferation was measured after 24, 48 and 72 hours using the MTT method as was previously described [Mossmann T. J., Immunol Methods. […] Absorbance was determined at 570 nm.
BxPC3 pancreatic tumor cells were plated on 96-well plates (2,000 cells/well), in hexaplicates. […] Proliferation was measured after 24, 48 and 72 hours using the MTT method. […] Absorbance was determined at 570 nm.

BxPC3 xenografts = assay: Anti-tumor activity in nude mice, BxPC3 xenografts; type: in vivo; conditions: two intraperitoneal injections (days 16 and 21), 150 mg/kg body weight
Description: as §1, §2
(§3) Female atymic NCr-nude mice (6 week old; Harlen, Israel) were inoculated subcutaneously with 2×10^6 human cancer cells. […] Tumor volumes were monitored twice a week, and body weights were measured once a week.
as §3

## TGFα: EGF-like domain of TGFα expressed in bacteria as thioredoxin (TRX) fusion protein, used as immunogen
[1]
  ability to induce EGFR phosphorylation on tyrosine residues: functionally active conformation

## Nc1ccn([C@@H]2O[C@H](CO)[C@@H](O)C2(F)F)c(=O)n1 [gemcitabine]
[2]
  growth inhibition of cultured BxPC3 cells (MTT), gemcitabine alone: growth inhibitory effect
BxPC3 xenografts
  inhibition of tumor growth, BxPC3 xenografts: more than 85%

B1: HB-EGF: EGF-like domain of HB-EGF expressed in bacteria as thioredoxin (TRX) fusion protein, used as immunogen (protein)
chain: DLQEADLDLLRVTLSSKPQALATPNKEEHGKRKKKGKGLGKKRDPCLRKYKDFCIHGECKYVKELRAPSCICHPGYHGERCHGLSL
[1]
  ability to induce EGFR phosphorylation on tyrosine residues: functionally active conformation
